Assay results reported in publication PMC9866191, “Novel 9-Benzylaminoacridine Derivatives as Dual Inhibitors of Phosphodiesterase 5 and Topoisomerase II for the Treatment of Colon Cancer” (Molecules, 2023).

Key:
HCT-116 [1] = experiment: MTT cell proliferation assay, HCT-116; details: for % Inhibition at 10 µM: 72 h MTT, means ± SD; for IC50: read-out: IC50 μM, 72 h MTT, means ± SD, three experiments
Experimental: (§1) In the MTT assay, 96-well culture plates were used. A total of 7 × 10^4 cells per well were seeded, and test materials were added to the cells at various concentrations [47, 48]. Human cancer and non-cancer cell lines were purchased commercially from the American Type Culture Collection (ATCC). After 72 h, the cytotoxicity of the compounds and paclitaxel (as a positive control group) was detected using the MTT method (thiazolyl blue tetrazolium bromide, Sigma-M2128). Absorbance values at 570 and 620 nm (OD = OD570–OD620) were measured using an ELISA reader (Anthos Labtec Instruments, Salzburg, Austria).

PDE5A = target: T1, PDE5A (Homo sapiens, UniProt O76074); experiment: Phosphodiesterase 5 HTRF cGMP assay; format: biochemical; details: for IC50: means ± S.D. (n = 4), read-out: PDE5 IC50; for inhibition at 10 µM: read-out: PDE5 % Inhibition at 10 μM
T1 construct: purchased BPS Bioscience, San Diego, CA, USA
Experimental: All the synthesized acridine derivatives were tested for their in vitro ability to inhibit PDE5A at a screening dose of 10 µM.
The enzyme activities of phosphodiesterase 5 (PDE5) were measured using an HTRF cGMP assay kit (Cisbio, Codolet, France). […] Afterward, the HTRF reagent (cGMP-d2 and anti-cGMP-cryptate) was added for 1 h at 25 °C, and PDE activity was assayed on an HTRF reader (Tecan Infinite F200 Pro).

A498 = experiment: NCI-60 one-dose screen; format: cell-based; details: Homo sapiens; A498, Renal Cancer panel; single dose 10^−5 M; read-out: Growth inhibition %
HCT-15 = experiment: NCI-60 one-dose screen; format: cell-based; details: Homo sapiens; HCT-15, Colon Cancer panel; single dose 10^−5 M; read-out: Growth inhibition %
HCT-116 [2] = experiment: NCI-60 one-dose screen; format: cell-based; details: Homo sapiens, read-out: Growth inhibition %
PC-3 = experiment: NCI-60 one-dose screen; format: cell-based; details: Homo sapiens; PC-3, Prostate Cancer panel; single dose 10^−5 M; read-out: Growth inhibition %
MOLT-4 = experiment: NCI-60 one-dose screen; format: cell-based; details: Homo sapiens; MOLT-4, Leukemia panel; single dose 10^−5 M; read-out: Growth inhibition %
SF-539 = experiment: NCI-60 one-dose screen; format: cell-based; details: Homo sapiens; SF-539, CNS Cancer panel; single dose 10^−5 M; read-out: Growth inhibition %
HT29 = experiment: NCI-60 one-dose screen; format: cell-based; details: Homo sapiens, HT-29; HT29, Colon Cancer panel; single dose 10^−5 M; read-out: Growth inhibition %
MDA-MB-468 = experiment: NCI-60 one-dose screen; format: cell-based; details: Homo sapiens; MDA-MB-468, Breast Cancer panel; single dose 10^−5 M; read-out: Growth inhibition %
TK-10 = experiment: NCI-60 one-dose screen; format: cell-based; details: Homo sapiens; TK-10, Renal Cancer panel; single dose 10^−5 M; read-out: Growth inhibition %
NCI-H322M = experiment: NCI-60 one-dose screen; format: cell-based; details: Homo sapiens, Non-small cell lung panel, single dose 10^−5 M, read-out: Growth inhibition %
SR = experiment: NCI-60 one-dose screen; format: cell-based; details: Homo sapiens, Leukemia panel, single dose 10^−5 M, read-out: Growth inhibition %
NCI-H460 = experiment: NCI-60 one-dose screen; format: cell-based; details: Homo sapiens; NCI-H460, Non-small cell lung panel; single dose 10^−5 M; read-out: Growth inhibition %
HS 578T = experiment: NCI-60 one-dose screen; format: cell-based; details: Homo sapiens, Breast Cancer panel, single dose 10^−5 M, read-out: Growth inhibition %
786-0 = experiment: NCI-60 one-dose screen; format: cell-based; details: Homo sapiens; 786-0, Renal Cancer panel; single dose 10^−5 M; read-out: Growth inhibition %
EKVX = experiment: NCI-60 one-dose screen; format: cell-based; details: Homo sapiens, Non-small cell lung panel, single dose 10^−5 M, read-out: Growth inhibition %
MALME-3M = experiment: NCI-60 one-dose screen; format: cell-based; details: Homo sapiens, Melanoma panel, single dose 10^−5 M, read-out: Growth inhibition %
SW-620 = experiment: NCI-60 one-dose screen; format: cell-based; details: Homo sapiens; SW-620, Colon Cancer panel; single dose 10^−5 M; read-out: Growth inhibition %
HL-60(TB) = experiment: NCI-60 one-dose screen; format: cell-based; details: Homo sapiens, Leukemia panel, single dose 10^−5 M, read-out: Growth inhibition %
BT-549 = experiment: NCI-60 one-dose screen; format: cell-based; details: Homo sapiens; BT-549, Breast Cancer panel; single dose 10^−5 M; read-out: Growth inhibition %
NCI-H522 = experiment: NCI-60 one-dose screen; format: cell-based; details: Homo sapiens; NCI-H522, Non-small cell lung panel; single dose 10^−5 M; read-out: Growth inhibition %
MCF7 = experiment: NCI-60 one-dose screen; format: cell-based; details: Homo sapiens; MCF7, Breast Cancer panel; single dose 10^−5 M; read-out: Growth inhibition %
UACC-257 = experiment: NCI-60 one-dose screen; format: cell-based; details: Homo sapiens; UACC-257, Melanoma panel; single dose 10^−5 M; read-out: Growth inhibition %
KM12 = experiment: NCI-60 one-dose screen; format: cell-based; details: Homo sapiens; KM12, Colon Cancer panel; single dose 10^−5 M; read-out: Growth inhibition %
SK-MEL-28 = experiment: NCI-60 one-dose screen; format: cell-based; details: Homo sapiens; SK-MEL-28, Melanoma panel; single dose 10^−5 M; read-out: Growth inhibition %
M14 = experiment: NCI-60 one-dose screen; format: cell-based; details: Homo sapiens; M14, Melanoma panel; single dose 10^−5 M; read-out: Growth inhibition %
RPMI-8226 = experiment: NCI-60 one-dose screen; format: cell-based; details: Homo sapiens; RPMI-8226, Leukemia panel; single dose 10^−5 M; read-out: Growth inhibition %
LOX IMVI = experiment: NCI-60 one-dose screen; format: cell-based; details: Homo sapiens, Melanoma panel, single dose 10^−5 M, read-out: Growth inhibition %
CCD-966SK = experiment: MTT cell proliferation assay, CCD-966SK; details: CCD966SK skin fibroblast, 72 h MTT
Experimental: as §1

Compound | IC50 (PDE5A) | inhibition at 10 µM (PDE5A) | inhibition at 10 µM (A498) | inhibition at 10 µM (HCT-15) | inhibition at 10 µM (HCT-116 [2]) | inhibition at 10 µM (PC-3) | inhibition at 10 µM (MOLT-4) | inhibition at 10 µM (SF-539) | inhibition at 10 µM (HT29) | inhibition at 10 µM (MDA-MB-468) | inhibition at 10 µM (TK-10) | inhibition at 10 µM (NCI-H322M) | inhibition at 10 µM (SR) | inhibition at 10 µM (NCI-H460) | inhibition at 10 µM (HS 578T) | inhibition at 10 µM (786-0) | inhibition at 10 µM (EKVX) | inhibition at 10 µM (MALME-3M) | inhibition at 10 µM (SW-620) | inhibition at 10 µM (HL-60(TB)) | other results
c1coc(CNc2c3ccccc3nc3ccccc23)c1 [Compound 14, Acridin-9-yl-furan-2-ylmethyl-amine] | 7.43 ± 2.69 µM | 56.5 ± 7.38% | 79.9% | 55.8% | 76% | 33% | 72.8% | 34.1% | 64.9% | 70.7% | 11.6% | 35% | 66% | 43.5% | 16% | 34.3% | 38% | 9.63% | 57.7% | 6.96% | % Inhibition at 10 µM (HCT-116 [1]): 58.83 ± 1.72%; IC50 (HCT-116 [1]): 8.41 ± 0.19 µM; inhibition at 10 µM (BT-549): 2.59%; inhibition at 10 µM (NCI-H522): 52.7%; inhibition at 10 µM (MCF7): 78.7%; inhibition at 10 µM (UACC-257): 18.3%; inhibition at 10 µM (KM12): 14.5%; inhibition at 10 µM (SK-MEL-28): 2.28%; inhibition at 10 µM (M14): 20.3%; inhibition at 10 µM (RPMI-8226): 43.4%; inhibition at 10 µM (LOX IMVI): 62.9%; % Inhibition at 10 µM (CCD-966SK): 33.89 ± 0.85%
Fc1ccc(CNc2c3ccccc3nc3ccccc23)cc1 [Compound 10, Acridin-9-yl-(4-fluorobenzyl)-amine] | > 10 µM | 47 ± 7.06% | 102% | 82.4% | 87.5% | 73.1% | 91.3% | 86.9% | 83.9% | 88.5% | 69.8% | 61.5% | 93.4% | 91.2% | 60.5% | 72.4% | 64.4% | 74.3% | 77.2% | 78.8% | % Inhibition at 10 µM (HCT-116 [1]): 67.57 ± 0.29%; IC50 (HCT-116 [1]): 2.75 ± 0.04 µM; inhibition at 10 µM (BT-549): 19.3%; inhibition at 10 µM (NCI-H522): 47.6%; inhibition at 10 µM (MCF7): 92.9%; inhibition at 10 µM (UACC-257): 64%; inhibition at 10 µM (KM12): 71.7%; inhibition at 10 µM (SK-MEL-28): 31.8%; inhibition at 10 µM (M14): 65.7%; inhibition at 10 µM (RPMI-8226): 100%; inhibition at 10 µM (LOX IMVI): 90.6%; % Inhibition at 10 µM (CCD-966SK): 52.93 ± 1.00%; IC50 (CCD-966SK; read-out: IC50 μM): 9.26 ± 0.21 µM
COc1cccc(CNc2c3ccccc3nc3ccccc23)c1 [Compound 6, Acridin-9-yl-(3-methoxybenzyl)-amine] | > 10 µM | 39.7 ± 3.2% | 96.3% | 75.6% | 90.1% | 61.1% | 93.6% | 80.6% | 81.3% | 86.4% | 48.3% | 56% | 91.6% | 90% | 44.4% | 62.7% | 48.2% | 56% | 74.5% | 59.1% | inhibition at 10 µM (BT-549): 31.3%; inhibition at 10 µM (NCI-H522): 38.3%; inhibition at 10 µM (MCF7): 85.4%; inhibition at 10 µM (UACC-257): 45%; inhibition at 10 µM (KM12): 64.1%; inhibition at 10 µM (SK-MEL-28): 18.8%; inhibition at 10 µM (M14): 64.8%; inhibition at 10 µM (RPMI-8226): 83.3%; inhibition at 10 µM (LOX IMVI): 80.2%; % Inhibition at 10 µM (CCD-966SK): 54.31 ± 0.98%
COc1ccc(CNc2c3ccccc3nc3ccc(OC)cc23)cc1 [Compound 27, (2-Methoxyacridin-9-yl)-(4-methoxybenzyl)-amine] | 1.87 ± 1.03 µM | 88.8 ± 4.84% | 106% | 94.7% | 87.3% | 94.5% | 100% | 91.5% | 103% | 115% | 66.4% | 76.5% | 116% | 93.5% | 74.1% | 85% | 75.8% | 92.9% | 84.2% | 121% | inhibition at 10 µM (BT-549): 57%; inhibition at 10 µM (NCI-H522): 73.8%; inhibition at 10 µM (MCF7): 130%; inhibition at 10 µM (UACC-257): 93.4%; inhibition at 10 µM (KM12): 72.4%; inhibition at 10 µM (SK-MEL-28): 58.7%; inhibition at 10 µM (M14): 80.5%; inhibition at 10 µM (RPMI-8226): 148%; inhibition at 10 µM (LOX IMVI): 175%; % Inhibition at 10 µM (CCD-966SK): 19.04 ± 3.94%
